Results on seven molecules are retold here after article PMC8397948, “Effect of Selected Antidepressants on Placental Homeostasis of Serotonin: Maternal and Fetal Perspectives” (Pharmaceutics, 2021).

Usually IC50 stands for the concentration needed to halve the response being measured.

Counter-ions that a name gives are not always drawn.

Series [1] addresses T1, OCT3 (Rattus norvegicus, UniProt O88446).
T1 sequence (O88446 1-551): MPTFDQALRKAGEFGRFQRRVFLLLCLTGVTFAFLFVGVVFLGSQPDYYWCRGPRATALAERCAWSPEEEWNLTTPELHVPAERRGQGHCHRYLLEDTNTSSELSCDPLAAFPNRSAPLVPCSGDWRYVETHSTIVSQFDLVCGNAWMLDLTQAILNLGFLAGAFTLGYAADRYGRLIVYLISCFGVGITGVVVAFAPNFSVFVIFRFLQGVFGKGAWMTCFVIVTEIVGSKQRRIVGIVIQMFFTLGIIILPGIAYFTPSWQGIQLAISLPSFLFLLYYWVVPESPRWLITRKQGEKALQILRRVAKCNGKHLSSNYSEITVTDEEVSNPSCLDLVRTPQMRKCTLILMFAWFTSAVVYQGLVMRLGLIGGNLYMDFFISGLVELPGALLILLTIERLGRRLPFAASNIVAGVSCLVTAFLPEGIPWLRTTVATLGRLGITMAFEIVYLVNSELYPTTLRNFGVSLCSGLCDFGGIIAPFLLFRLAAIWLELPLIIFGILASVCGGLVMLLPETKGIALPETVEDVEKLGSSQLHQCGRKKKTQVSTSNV
The series is described as follows: In situ open-circuit perfusion of rat term placenta: 5-HT extraction from fetal circulation. In kind it is in vivo.

The conditions of series [2]: pregnant women or women; read-out: Cmax (maximum steady-state plasma concentration); cited from earlier work.
Series [3] can be described thus: Published plasma concentrations and fetal-to-maternal ratios in (pregnant) women. Conditions: matches Ca x F/M ratio of published values. Format: in vivo, human.
Series [4] concerns the target T2, OCT3 (Homo sapiens, UniProt O75751).
T2 construct: MVM and BM vesicles were used to evaluate the effects of antidepressants on SERT- and OCT3-mediated uptake of 5-HT, respectively; from tissue; host or cells: human term placenta, basal membrane (BM) vesicles
T2 sequence (O75751 1-556): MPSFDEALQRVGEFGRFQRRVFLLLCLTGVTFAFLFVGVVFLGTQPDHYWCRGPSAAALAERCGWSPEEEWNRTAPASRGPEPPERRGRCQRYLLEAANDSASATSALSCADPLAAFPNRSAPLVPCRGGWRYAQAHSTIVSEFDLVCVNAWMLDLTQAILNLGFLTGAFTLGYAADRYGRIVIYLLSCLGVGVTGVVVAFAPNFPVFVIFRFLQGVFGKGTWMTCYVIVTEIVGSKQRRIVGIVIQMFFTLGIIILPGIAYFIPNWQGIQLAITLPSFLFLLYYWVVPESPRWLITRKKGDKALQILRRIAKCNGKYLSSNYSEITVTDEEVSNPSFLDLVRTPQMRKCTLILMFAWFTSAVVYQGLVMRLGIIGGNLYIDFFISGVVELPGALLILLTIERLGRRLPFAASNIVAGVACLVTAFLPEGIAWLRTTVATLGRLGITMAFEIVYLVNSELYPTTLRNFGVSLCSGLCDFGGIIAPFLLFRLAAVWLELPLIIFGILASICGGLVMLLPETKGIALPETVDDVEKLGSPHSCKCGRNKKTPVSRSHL
In words: [3H]5-HT uptake by basal membrane (BM) vesicles from human term placenta. Format: biochemical. The settings on record: 100 nM [3H]5-HT, 10 min preincubation, room temperature, n ≥ 4, read-out: IC50 BM (OCT3-mediated 5-HT uptake).
Protocol: Maternal decidua and chorionic plate were removed, and placental villous tissue was cut into small pieces. The tissue was homogenized in a solution containing 250 mM sucrose, 10 mM Tris-Hepes (pH 7.2), 5 mM EGTA, 5 mM EDTA and 1 mM phenylmethylsulfonyl fluoride (PMSF). Microvillous and basal membrane (MVM and BM, respectively) vesicles were prepared simultaneously, using a previously described differential centrifugation method based on Mg^2+ precipitation and separation of MVM and BM in a sucrose gradient [40]. All these procedures were performed at 4 °C.
MVM and BM samples were resuspended in intravesicular buffer (290 mM sucrose, 5 mM Hepes, 5 mM Tris; pH 7.4), and vesiculated by passaging 20 times through a 25-gauge needle as previously described [32]. Protein concentration was measured using the BCA assay.
Uptake of [^3H]5-HT into MVM or BM vesicles was measured at room temperature using the rapid vacuum filtration technique as previously described [32]. […] Filter-associated radioactivity was determined by liquid scintillation counting. Non-specific tracer binding to the filter and plasma membranes was accounted for by subtracting radioactivity measured in protein-free controls and uptake at time zero, respectively, from the total vesicle uptake measurements. […]

[5] abbreviates: 1 µM (therapeutic concentration), fetal sex not considered.
[6] abbreviates: 100 µM antidepressant, 1 nM [3H]5-HT, both fetal sexes together, vs control.
[7] abbreviates: 100 µM antidepressant, male placentas.

Take `CN(C)CCCC1(c2ccc(F)cc2)OCc2cc(C#N)ccc21` (centres unmarked) [Citalopram, citalopram hydrobromide]: the “Effect on placental extraction of 5-HT from fetal circulation” value (“Effect on placental extraction of 5-HT” for short) is recorded as “no significant inhibition” in series [1] (setting [5]) and “significantly decreased” in series [1] (setting [6]). Moreover, in series [2], the Cmax is 1200 nM.

On to `CNCCC(Oc1ccc(C(F)(F)F)cc1)c1ccccc1` (centres unmarked) [Fluoxetine, fluoxetine hydrochloride], for which the “Effect on 5-HT extraction from circulation of male fetuses” value (“Effect … of male fetuses” for short) in series [1] (setting [7]) is reported as “susceptible to inhibition”.

Regarding `COCCCC/C(=N\OCCN)c1ccc(C(F)(F)F)cc1` [Fluvoxamine, fluvoxamine maleate], the “Ca;fetal (average fetal plasma concentration)” value in series [3] is 348 nM. Further, the results for the “Effect on placental extraction of 5-HT” value in series [1] (setting [5]) and in series [1] (setting [6]) were “no significant inhibition” and “significantly decreased”, respectively. Further, the “Effect … of male fetuses” value in series [1] (setting [7]) is listed as “susceptible to inhibition”. Moreover, the IC50 in series [4] is 15.2 nM. For the same molecule, the Cmax in series [2] is 1300 nM.

As for `Fc1ccc([C@@H]2CCNC[C@H]2COc2ccc3c(c2)OCO3)cc1` [Paroxetine, paroxetine hydrochloride], the “Effect on placental extraction of 5-HT” value in series [1] (setting [5]) is on record as “no significant inhibition”; in series [1] (setting [6]), “significantly decreased”. Besides, the “Effect on 5-HT extraction from fetal circulation in male placentas” value in series [1] (1 µM (therapeutic concentration), male placentas) was “potent inhibitor in males”. The “Effect on 5-HT extraction from circulation of female fetuses” value in series [1] (100 µM antidepressant, female placentas) was “prone to inhibition”. Besides, the “Effect … of male fetuses” value in series [1] (setting [7]) was “susceptible to inhibition”. The IC50 in series [4] came out at 4.39 nM. Moreover, in series [2], the Cmax was 1000 nM.

For the molecule `CN[C@H]1CC[C@@H](c2ccc(Cl)c(Cl)c2)c2ccccc21` [Sertraline, sertraline hydrochloride], the “Effect … of male fetuses” value in series [1] (setting [7]) is reported as “susceptible to inhibition”.

As to `COc1ccc(C(CN(C)C)C2(O)CCCCC2)cc1` (centres unmarked) [Venlafaxine, venlafaxine hydrochloride], the “Effect … of male fetuses” value in series [1] (setting [7]) is “susceptible to inhibition”.

Regarding `CCN1/C(=C/c2ccc3ccccc3[n+]2CC)C=Cc2ccccc21.[I-]` [decynium-22], the “Effect of model OCT3 inhibitor on 5-HT extraction from fetal circulation” value in series [1] (10 µM decynium-22) is “sensitive to co-administration of decynium-22”.
